Assay results taken from patent publication US7718808B2, “Thiazole derivatives” (Kyowa Hakko Kirin Co., Ltd., priority 2003, dated 2010).

SMILES	melting point
O=C(Nc1nc(-c2ccco2)c(C(=O)c2ccccn2)s1)c1ccc(Br)o1 [Compound 235, 5-Bromo-N-[4-(2-furyl)-5-(pyridin-2-ylcarbonyl)thiazol-2-yl]furan-2-carboxamide]	211 to 212 °C
Cc1csc(C(=O)c2sc(NC(=O)c3ccncc3)nc2-c2ccco2)n1 [Compound 350, N-[4-(2-Furyl)-5-(4-methylthiazol-2-ylcarbonyl)thiazol-2-yl]pyridine-4-carboxamide]	250 to 255 °C
CC(C)C(=O)c1sc(N)nc1-c1ccco1 [Compound 392, 2-Amino-4-(2-furyl)thiazol-5-yl isopropyl ketone]	195 to 199 °C
CC(O)c1cc2cc(C(=O)Nc3nc(-c4ccco4)c(C(=O)c4ccccn4)s3)ccc2o1 (centres unmarked) [Compound 246, N-[4-(2-Furyl)-5-(pyridin-2-ylcarbonyl)thiazol-2-yl]-2-(1-hydroxyethyl)-1-benzofuran-5-carboxamide]	246 to 249 °C
COCC(=O)c1sc(NC(=O)c2ccc(F)cc2)nc1-c1ccco1 [Compound 405, 4-Fluoro-N-[4-(2-furyl)-5-(methoxyacetyl)thiazol-2-yl]benzamide]	166 to 167 °C
COc1ccccc1C(=O)Nc1nc(-c2ccco2)c(C(=O)C2CC2)s1 [Compound 420, N-[5-(Cyclopropylcarbonyl)-4-(2-furyl)thiazol-2-yl]-2-methoxybenzamide]	150 to 154 °C
CC(C)C(=O)c1sc(NC(=O)C2CC2)nc1-c1ccco1 [Compound 394, N-[4-(2-Furyl)-5-isobutyrylthiazol-2-yl]cyclopropane carboxamide]	178 to 182 °C
O=C(CN1CCC2(CC1)OCCO2)Nc1nc(-c2ccco2)c(C(=O)C2CCOCC2)s1 [Compound 554, 2-(1,4-Dioxa-8-azaspiro[4.5]decan-8-yl)-N-[4-(2-furyl)-5-(tetrahydropyran-4-ylcarbonyl)thiazol-2-yl]acetamide]	186 to 187 °C
O=C(Nc1nc(-c2ccco2)c(C(=O)C2CCOCC2)s1)c1ccc(F)cc1F [Compound 490, 2,4-Difluoro-N-[4-(2-furyl)-5-(tetrahydropyran-4-ylcarbonyl)thiazol-2-yl]benzamide]	213 to 215 °C
O=C(c1ccccn1)c1sc(NC(=O)N2CCCCC2)nc1-c1ccco1 [Compound 257, N-[4-(2-Furyl)-5-(pyridin-2-ylcarbonyl)thiazol-2-yl]piperidine-1-carboxamide]	182 to 185 °C
COCCNC(=O)Nc1nc(-c2ccco2)c(C(=O)c2ccccn2)s1 [Compound 260, N-[4-(2-Furyl)-5-(pyridin-2-ylcarbonyl)thiazol-2-yl]-N′-(2-methoxyethyl)urea]	150 to 151 °C
CCOC(=O)Nc1nc(-c2ccco2)c(C(=O)c2ccccn2)s1 [Compound 250, Ethyl N-[4-(2-furyl)-5-(pyridin-2-ylcarbonyl)thiazol-2-yl]carbamate]	158 to 159 °C
Cn1cc(C(=O)Nc2nc(-c3ccco3)c(C(=O)C3CCOCC3)s2)cn1 [Compound 519, N-[4-(2-Furyl)-5-(tetrahydropyran-4-ylcarbonyl)thiazol-2-yl]-1-methylpyrazole-4-carboxamide]	243 to 247 °C
O=C(Nc1nc(-c2ccco2)c(C(=O)C2CC2)s1)c1ccncc1 [Compound 417, N-[5-(Cyclopropylcarbonyl)-4-(2-furyl)thiazol-2-yl]pyridine-4-carboxamide]	225 to 230 °C (dec.)
COc1ccc(C(=O)Nc2nc(-c3ccco3)c(-c3ccncc3)s2)cc1 [Compound 103, N-[4-(2-Furyl)-5-(4-pyridyl)thiazol-2-yl]-4-methoxybenzamide]	235 to 245 °C
Cn1cc(C(=O)Nc2nc(-c3ccco3)c(C(=O)c3ccccc3)s2)ccc1=O [Compound 150, N-[5-Benzoyl-4-(2-furyl)thiazol-2-yl]-1-methyl-2-oxo-1,2-dihydropyridine-5-carboxamide]	220 to 225 °C
CC(C)NC(=O)Nc1nc(-c2ccco2)c(C(=O)c2ccccn2)s1 [Compound 258, N-[4-(2-Furyl)-5-(pyridin-2-ylcarbonyl)thiazol-2-yl]-N′-isopropylurea]	182 to 186 °C
O=C(Nc1nc(-c2ccco2)c(C(=O)c2ccccn2)s1)c1ccnnc1 [Compound 227, N-[4-(2-Furyl)-5-(pyridin-2-ylcarbonyl)thiazol-2-yl]pyridazine-4-carboxamide]	270 to 274 °C
N#Cc1ccc(C(=O)Nc2nc(-c3ccco3)c(C(=O)C3CCC(=O)CC3)s2)cc1 [Compound 452, 4-Cyano-N-[4-(2-furyl)-5-(4-oxocyclohexylcarbonyl)thiazol-2-yl]benzamide]	211 to 212 °C
O=C(Nc1nc(-c2ccco2)c(C(=O)c2ccccn2)s1)c1ccc([N+](=O)[O-])o1 [Compound 236, N-[4-(2-Furyl)-5-(pyridin-2-ylcarbonyl)thiazol-2-yl]-5-nitrofuran-2-carboxamide]	278 to 283 °C (dec.)
O=C(Nc1nc(-c2ccco2)c(C(=O)c2ccc(N3CCC(O)CC3)nc2)s1)c1ccncc1 [Compound 326, N-{4-(2-Furyl)-5-[2-(4-hydroxypiperidino)pyridin-5-ylcarbonyl]thiazol-2-yl}pyridine-4-carboxamide]	264 to 268 °C
O=C(Nc1nc(-c2ccco2)c(C(=O)c2ccccn2)s1)c1ccncc1Cl [Compound 215, 3-Chloro-N-[4-(2-furyl)-5-(pyridin-2-ylcarbonyl)thiazol-2-yl]pyridine-4-carboxamide]	206 to 207 °C
COc1cc(OC)cc(C(=O)Nc2nc(-c3ccco3)c(C(=O)C3CCOCC3)s2)c1 [Compound 488, N-[4-(2-Furyl)-5-(tetrahydropyran-4-ylcarbonyl)thiazol-2-yl]-3,5-dimethoxybenzamide]	278 to 280 °C
CN1CCN(CC(=O)Nc2nc(-c3ccco3)c(C(=O)C3CCOCC3)s2)CC1 [Compound 562, N-[4-(2-Furyl)-5-(tetrahydropyran-4-ylcarbonyl)thiazol-2-yl]-2-(4-methylpiperazin-1-yl)acetamide]	106 to 112 °C
Cc1ccnc(C(=O)c2sc(NC(=O)c3ccncc3)nc2-c2ccco2)c1 [Compound 295, N-[4-(2-Furyl)-5-(4-methylpyridin-2-ylcarbonyl)thiazol-2-yl]pyridine-4-carboxamide]	240 to 245 °C
CCCC(=O)Nc1nc(-c2ccco2)c(C(=O)c2ccccn2)s1 [Compound 189, N-[4-(2-Furyl)-5-(pyridin-2-ylcarbonyl)thiazol-2-yl]butanamide]	148 to 149 °C
O=C(Nc1nc(-c2ccco2)c(C(=O)C2CCOCC2)s1)c1ccc(F)c(F)c1 [Compound 493, 3,4-Difluoro-N-[4-(2-furyl)-5-(tetrahydropyran-4-ylcarbonyl)thiazol-2-yl]benzamide]	208 to 210 °C
O=C(Nc1nc(-c2ccco2)c(C(=O)c2ccccc2)s1)c1ccnnc1 [Compound 153, N-[5-Benzoyl-4-(2-furyl)thiazol-2-yl]pyridazine-4-carboxamide]	225 to 248 °C
COCCN(C)CC(=O)Nc1nc(-c2ccco2)c(C(=O)C2CCOCC2)s1 [Compound 534, N-[4-(2-Furyl)-5-(tetrahydropyran-4-ylcarbonyl)thiazol-2-yl]-2-[N-(2-methoxyethyl)-N-methylamino]acetamide]	103 to 105 °C
